Tests used:
Type in all cases: cell-based
[1] = system: Staphylococcus epidermidis ATCC 12228; assay: Agar incorporation test (MIC test); settings: S. epidermidis
Protocol: (§1) Determination of the Minimum Inhibiting Concentration (MIC) in the Agar Incorporation Test (MIC Test)
(§2) When the nutrient substrate has solidified, 10 μl portions of the following organism dilutions of the test strains in 0.85% NaCl solution are spotted onto the agar medium:
(§3) The plates are incubated at 37° C. for 24 hours (A.niger 3 days at 28° C.) and then the highest dilution of the test substance at which growth is just no longer discernible (corresponds to MIC) is determined.

[2] = system: Pseudomonas aeruginosa CIP A-22; assay: Agar incorporation test (MIC test); settings: P. aeruginosa
Protocol: as §1, §2, §3

[3] = system: Corynebacterium xerosis ATCC 373; assay: Agar incorporation test (MIC test); settings: C. xerosis
Protocol: as §1, §2, §3

[4] = system: Escherichia coli NCTC 8196; assay: Agar incorporation test (MIC test); settings: E. coli
Protocol: as §1, §2, §3

[5] = system: Aspergillus niger ATCC 6275; assay: Agar incorporation test (MIC test); settings: A. niger
Protocol: as §1, §2, §3

[6] = system: Candida albicans ATCC 10231; assay: Agar incorporation test (MIC test); settings: C. albicans
Protocol: as §1, §2, §3

[7] = system: Staphylococcus aureus ATCC 9144; assay: Agar incorporation test (MIC test); settings: S. aureus
Protocol: as §1, §2, §3

[8] = system: Pseudomonas aeruginosa ATCC 15 442; assay: Agar diffusion test; note: values in mm; settings: P. aeruginosa ATCC 15 442
Protocol: (§4) Determination of antimicrobial activity in the agar diffusion test [table] After the bacteria precultures have been incubated, they are diluted 1:100 with dilution medium. 3.5 ml of that dilution of the bacteria are introduced into 500 ml of agar and from that organism-containing agar plates of about 15 ml of medium are poured. […] After the agar plates have cooled and solidified, wells are punched in the agar (diameter 10 mm) and 100 μl of test substance solution are introduced into each well. After incubation of the plates, the diameters of the growth-free inhibiting areolas in the agar are determined.

[9] = system: Escherichia coli NCTC 8196; assay: Agar diffusion test; note: values in mm; settings: E. coli NCTC 8196
Protocol: as §4

[10] = system: Candida albicans ATCC 10231; assay: Agar diffusion test; note: values in mm
Protocol: as §4

[11] = system: Staphylococcus aureus ATCC 9144; assay: Agar diffusion test; note: values in mm; settings: S. aureus ATCC 9144
Protocol: as §4

[12] = system: Aspergillus niger ATCC 6275; assay: Agar diffusion test; note: values in mm; settings: A. niger ATCC 6275
Protocol: Determination of antimicrobial activity in the agar diffusion test [table] After the bacteria precultures have been incubated, they are diluted 1:100 with dilution medium. 3.5 ml of that dilution of the bacteria are introduced into 500 ml of agar and from that organism-containing agar plates of about 15 ml of medium are poured. The test substances are dissolved in a suitable solvent in final concentrations of 1-3%. After the agar plates have cooled and solidified, wells are punched in the agar (diameter 10 mm) and 100 μl of test substance solution are introduced into each well. After incubation of the plates, the diameters of the growth-free inhibiting areolas in the agar are determined.

[13] = 1% in ethanol, C. albicans ATCC 10231
[14] = 2% in ethanol, C. albicans ATCC 10231

SMILES | MIC ([1]; solution in EtOH) | MIC ([2]; solution in EtOH) | MIC ([3]; solution in EtOH) | MIC ([4]; solution in EtOH) | MIC ([5]; solution in EtOH) | MIC ([6]; solution in EtOH) | MIC ([7]; solution in EtOH) | Inhibiting areola diameter ([9]; 1% in ethanol) | Inhibiting areola diameter ([9]; 2% in ethanol) | Inhibiting areola diameter [10, 13] | Inhibiting areola diameter [10, 14] | Inhibiting areola diameter ([11]; 1% in ethanol) | Inhibiting areola diameter ([11]; 2% in ethanol) | Inhibiting areola diameter ([12]; 1% in ethanol) | Inhibiting areola diameter ([12]; 2% in ethanol) | other results
O=c1oc(-c2ccc([N+](=O)[O-])o2)ns1 [compound 105] |  |  |  |  |  |  |  |  |  |  |  |  |  |  |  | Inhibiting areola diameter ([8]; 0.1% in THF): 0/0; Inhibiting areola diameter ([8]; 0.5% in THF): 1/1; Inhibiting areola diameter ([8]; 1.0% in THF): 5/5; Inhibiting areola diameter ([8]; 3.0% in THF): 6/6; Inhibiting areola diameter ([9]; 0.1% in THF): 1/1; Inhibiting areola diameter ([9]; 0.5% in THF): 3/3; Inhibiting areola diameter ([9]; 1.0% in THF): 6/6; Inhibiting areola diameter ([9]; 3.0% in THF): 6/6; Inhibiting areola diameter ([10]; 0.1% in THF, C. albicans ATCC 10 231): 3/3; Inhibiting areola diameter ([10]; 0.5% in THF, C. albicans ATCC 10 231): 4/4; Inhibiting areola diameter ([10]; 1.0% in THF, C. albicans ATCC 10 231): 8/8; Inhibiting areola diameter ([10]; 3.0% in THF, C. albicans ATCC 10 231): 9/9; Inhibiting areola diameter ([11]; 0.1% in THF): 4/4; Inhibiting areola diameter ([11]; 0.5% in THF): 10/10; Inhibiting areola diameter ([11]; 1.0% in THF): 11/11; Inhibiting areola diameter ([11]; 3.0% in THF): 11/11
O=c1oc(-c2ccccc2)ns1 [compound 106] |  |  |  |  |  |  |  |  |  |  |  |  |  |  |  | MIC ([1]; solution in DMSO): 10 ppm; MIC ([2]; solution in DMSO): 1000 ppm; MIC ([3]; solution in DMSO): 10 ppm; MIC ([4]; solution in DMSO): 100 ppm; MIC ([5]; solution in DMSO): 250 ppm; MIC ([6]; solution in DMSO): 100 ppm; MIC ([7]; solution in DMSO): 10 ppm
O=c1oc(-c2ccc(Cl)cc2)ns1 [compound 107] |  |  |  |  |  |  |  | 1/1 | 1/1 | 3/3 | 4/4 | 4/4 | 5/5 | 0/0 | 0/0 | 
Cc1nsc(=O)o1 [compound 108] |  |  |  |  |  |  |  | 1/1 | 3/2 | 8/8 | 10/10 | 12/12 | 20/20 | 4/5 | 12/12 | 

Second part, led by results:

MIC ([1]; solution in EtOH) | MIC ([2]; solution in EtOH) | MIC ([3]; solution in EtOH) | MIC ([4]; solution in EtOH) | MIC ([5]; solution in EtOH) | MIC ([6]; solution in EtOH) | MIC ([7]; solution in EtOH) | SMILES | Inhibiting areola diameter ([9]; 1% in ethanol) | Inhibiting areola diameter ([9]; 2% in ethanol) | Inhibiting areola diameter [10, 13] | Inhibiting areola diameter [10, 14] | Inhibiting areola diameter ([11]; 1% in ethanol) | Inhibiting areola diameter ([11]; 2% in ethanol) | Inhibiting areola diameter ([12]; 1% in ethanol) | Inhibiting areola diameter ([12]; 2% in ethanol) | other results
100 ppm | 1000 ppm | 250 ppm | 1000 ppm | 100 ppm | 100 ppm | 100 ppm | O=c1oc(-c2ccccc2O)ns1 [compound 101] |  |  |  |  |  |  |  |  | 
100 ppm | 600 ppm | 200 ppm | 600 ppm | 600 ppm | 100 ppm | 100 ppm | O=c1oc(-c2cccnc2)ns1 [compound 103] |  |  |  |  |  |  |  |  | 

Source: patent US6689372B1, “Microbicidal active substances” (Ciba Specialty Chemicals Corporation, priority 1998, dated 2004)
